We go through one compound from ChEMBL document CHEMBL5726561, “Compounds and pharmaceutical compositions thereof for the treatment of inflammatory disorders” (2017).

The test deals with Autotaxin (Homo sapiens, UniProt Q13822). In words: Biochemical Assay: Compound IC50 values are determined in a fluorescent hENPP2 (UniProtKB/SwissProt Sequence ref Q13822) biochemical assay using the fluorogenic autotaxin substrate FS-3 as substrate. FS-3 is a doubly labeled analog of LPC wherein the fluorophore is quenched through intramolecular energy transfer. Without hENPP2, the emission of the probe is quenched. If the substrate is hydrolyzed by hENPP2, the emission of the probe is not quenched anymore resulting in a fluorescence increase. Inhibition of hENPP2 by compounds will result in a decrease of the signal. 10 uL of a dilution series of compound, starting from 20 uM highest concentration, dilution, is added to the wells. hENPP2 is used at a final concentration of 0.4 ug/mL or 0.64 ug/mL (it will be appreciated by the skilled person that the potency read out is independent of the enzyme concentration). The enzyme is diluted in 50 mM Tris-HCl pH 8.0, 250 mM NaCl, 5 mM KCl, 1 mM MgCl2, 1 mM CaCl2, 0.1% fatty acid free BSA in a total volume of 20 uL. Enzyme mixture is added to compounds and the resulting mixture is incubated for 30 min at room temperature under shaking. The reaction is started by the addition of 20 uL of 0.75 uM FS-3 diluted in the same buffer as described above and the mixture is incubated at 30° C. for 30 min. Fluorescence is read on the Envision (Excitation 485 nm, emission 520 nm).

As for `CCc1nc2ccc(N3CCC(NC(=O)C4CCOCC4)CC3)nn2c1N(C)c1nc(-c2ccc(F)cc2)cs1`, the IC50 was < 1000 nM.
